The test system of series [1] is airway epithelial glutaminase. Briefly: Ammonium accumulation by small airway epithelial cells (SAEC) in 3 mM glutamine. In kind it is cell-based, human. The procedure:
(SAEC: Clonetics) grown to confluence in six well plates with 3 mM glutamine were incubated with S-Nitrosoglutathione (GSNO; 200 μm) in the presence or absence of cysteinyl glycine (CG; 100 μM). Ammonium accumulation over time was compared with control cells. S-Nitrosoglutathione require conversion to S-Nitrosocysteinyl glycine (CGSNO) (whether through simple transnitrosation reactions in the presence of CG or through cleavage by γ glutamyl transpeptidase) to be fully active at intracellular sites, such as mitochondrial glutaminase, in some system. However, conversion of GSNO to CGSNO dramatically shortens the chemical and biological half-life of the SNO moiety. […] Accumulation of NH4^+ in medium alone was at the threshold of detection.

The conditions of series [2]: existing formulations; cited from earlier work.
Series [3] in a line: Practical applications: asthma patient cases. In kind it is in vivo, human. The source says: (§1) Practical Applications of the Present Invention
For the next series, the system named is mycobacteria. Particulars: human, in vivo, pH 3.
From the text: as §1

Another series concerns glutaminase. Briefly: Glutaminase activity in cultured lung epithelial cells. The note with it: 100 u/ml, at 24 and 48 hours, p<0.01, n=3 each. It counts as cell-based. The source says:
An indirect effect of HRV infection involving inflammatory and/or neuronal mediators is also possible. In particular, IFN γ is a likely candidate to mediate glutaminase inhibition because 1) Th1 cytokines inhibit glutaminase activity in lower airway epithelial cells 2) IFN γ inhibits glutaminase in other cell systems; and 3) IFN γ production following HRV infection in the setting of Th2-lymphocyte associated chronic inflammation may contribute to asthmatic airway narrowing. Applicants have shown that 100 u/ml interferon gamma inhibits glutaminase activity in cultured lung epithelial cells in excess of 65% at 24 and 48 hours (p<0.01, n=3 each). Though circulating T cells could produce IFN γ during rhinovirus infections, it seems more likely that it would be secreted in the airway itself as a result of local recruitment and activation of Th1 and/or CD8 cells.
In accordance with one embodiment, a method of treating asthma comprises nebulizing or treating systemically with a compound that facilitates breakdown of S-Nitrosothiols, such as CuCl, Cu/Zn SOD, glutathione peroxidase, glutathione-dependent formaldehyde dehydrogenase or gamma glutamyl transpeptidase. […]

For series [4] the following is noted: cited from earlier work.

Structures can show the parent of a compound that is named as a salt.

On to `N[C@@H](CCC(=O)N[C@@H](CSN=O)C(=O)NCC(=O)O)C(=O)O` [GSNO, S-Nitrosoglutathione], for which the “NH4+ accumulation at 24 hours” value in series [1] (GSNO 200 μm in the presence of cysteinyl glycine 100 μM, 24 hours) is reported as “no NH4^+ at all accumulated”. Besides, in series [1] (GSNO 200 μm, SAEC, p<0.01 by ANOVA), the “NH4+ accumulation over time vs control cells” value is recorded as “inhibited NH4^+ accumulation at each time point”. Consider `CC(C)(C)NCC(O)c1ccc(O)c(CO)c1` (centres unmarked) [Albuterol], for which the “pH of existing formulation” value in series [2] is on record as 3 to 5. The asthma symptoms entry in series [3] (0.083 mg diluted in normal saline (pH 3.5), child) is listed as “symptoms do not improve”; in series [3] (same dose diluted in 10 mM phosphate buffered saline, pH 8), “symptoms resolve”.

In the case of `CC(=O)O` [acetic acid], the tuberculosis symptoms entry in the series on mycobacteria is listed as “symptoms resolve”. “interferon gamma: Th1-derived cytokine that inhibits glutaminase”: in the series with glutaminase, the “inhibition of glutaminase activity” value is recorded as > 65%. Consider `NCC(=O)O` [glycine, aminoacetic acid], for which the asthma symptoms entry in series [3] (1 mM glycine in 10 mM CAPS (pH 7.6) by nebulizer immediately before levalbuterol and budesonide) is reported as “becomes asymptomatic”. For the molecule `O=C(O)CNC(CO)(CO)CO` [tricene, N-[tris(hydroxymethyl)methyl] glycine], the pKa in series [4] is given as 8.26. Consider `OC(Cn1cncn1)(Cn1cncn1)c1ccc(F)cc1F` [fluconazole], for which the asthma symptoms result in series [3] (7 day course, 200 mg/day, chronic yeast infection in mouth) is recorded as “asthma symptoms improve”. As for `O=C(O)CN(CCO)CCO` [bicine, N,N-Bis(2-hydroxyethyl)glycine], in series [4], the pKa is 8.46. With `N[C@@H](CS)C(=O)NCC(=O)O` [CG, cysteinyl glycine], the “effect on GSNO inhibition of NH4+ accumulation after 48 hours” value in series [1] (cysteinyl glycine 100 μM added to GSNO 200 μm, after 48 hours) is on record as “eliminated the GSNO effect”. Turning to `[Cl][Cu]` [CuCl], in series [3] (10 μM in 10 mM phosphate buffered saline, pH 8, three times/day), the asthma symptoms result is reported as “asthma symptoms resolve”. For the molecule `CC(C)(C)NC[C@H](O)c1ccc(O)c(CO)c1` [Levalbuterol HCl], the “pH of existing formulation” value in series [2] was 3.3-4.5. For the same molecule, in series [3] (levalbuterol and budesonide together, 0.5 mg by nebulizer four times/day), the asthma symptoms result is listed as “without relief of their symptoms”. For `NC(=O)CC[C@H](N)C(=O)O` [glutamine], the asthma symptoms result in series [3] (1 gm by mouth three times a day) is given as “does not develop any asthma symptoms”. Also, in series [3] (1 gm by nebulizer (pH 8) twice a day at onset of upper respiratory symptoms), the asthma exacerbation entry is listed as “does not develop an asthma exacerbation”.

In general, pKa refers to the pH at which an ionisable group is half protonated.

The values are drawn from US7888385B2, “Airway alkalinization as therapy for airway diseases” (priority 2002, dated 2011).
